# Source: patent US20250235543A1, “MODIFIED PROTEINS AND PROTEIN DEGRADERS” (Cullgen (Shanghai), Inc., priority 2021, published 2025)
# Read-outs that look alike come from different tables or passages of the source.
# Key:
# cyclin D1 = experiment: Cyclin D1 percentage degradation in Calu-1 cells (immunoblotting); type: cell-based; details: 16 hours
# How it was run: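 Cyclin D1 degradation was assessed by western blot. Clarified lysates, obtained by RIPA lysis with inhibitors and centrifugation at 13,000 rpm, were normalized by BCA protein assay and separated by SDS-PAGE. Bands were detected with Western ECL Substrate on a Bio-Rad ChemiDoc MP Imaging system and quantified in Image Lab software to derive percentage degradation.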
# CDK4 = target: T1, CDK4 (Homo sapiens, UniProt P11802); experiment: CDK4 percentage degradation in Calu-1 cells (immunoblotting); type: cell-based; details: for inhibition at 0.2 µM: read-out: CDK4 Degradation (200 nM); for inhibition at 10 µM: read-out: CDK4 Degradation (10 μM)
# T1 construct: endogenous in cells; host or cells: Calu-1
# How it was run: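 CDK4 degradation was measured by immunoblotting. Cells were washed in cold PBS and lysed in RIPA buffer with inhibitors for 30 min at 4° C., then spun at 13,000 rpm to clear. After BCA protein determination, lysates were heated at 99° C. for 5 min in Laemmli buffer, resolved on SDS-PAGE, imaged on a ChemiDoc MP with ECL substrate, and band intensities quantified.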
# T1 sequence (P11802 2-303 limits assumed): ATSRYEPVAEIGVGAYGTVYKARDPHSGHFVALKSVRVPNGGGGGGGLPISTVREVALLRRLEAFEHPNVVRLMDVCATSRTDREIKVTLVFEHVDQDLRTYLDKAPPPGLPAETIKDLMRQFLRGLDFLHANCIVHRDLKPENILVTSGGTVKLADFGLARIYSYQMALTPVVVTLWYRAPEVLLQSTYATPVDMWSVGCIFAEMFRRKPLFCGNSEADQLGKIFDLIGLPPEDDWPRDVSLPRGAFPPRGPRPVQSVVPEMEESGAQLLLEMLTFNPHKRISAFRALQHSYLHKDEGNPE
# T1 sequence (P24385 whole entry partner): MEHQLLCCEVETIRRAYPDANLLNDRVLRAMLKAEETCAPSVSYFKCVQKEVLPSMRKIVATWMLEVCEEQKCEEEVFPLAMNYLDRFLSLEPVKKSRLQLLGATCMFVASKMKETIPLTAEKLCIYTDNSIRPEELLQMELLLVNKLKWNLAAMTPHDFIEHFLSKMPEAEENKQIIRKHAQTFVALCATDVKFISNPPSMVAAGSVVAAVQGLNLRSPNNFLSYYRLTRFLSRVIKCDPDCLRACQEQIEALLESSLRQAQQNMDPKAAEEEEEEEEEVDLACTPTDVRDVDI
# T1 sequence (Q16531 2-1140 limits assumed, further chain): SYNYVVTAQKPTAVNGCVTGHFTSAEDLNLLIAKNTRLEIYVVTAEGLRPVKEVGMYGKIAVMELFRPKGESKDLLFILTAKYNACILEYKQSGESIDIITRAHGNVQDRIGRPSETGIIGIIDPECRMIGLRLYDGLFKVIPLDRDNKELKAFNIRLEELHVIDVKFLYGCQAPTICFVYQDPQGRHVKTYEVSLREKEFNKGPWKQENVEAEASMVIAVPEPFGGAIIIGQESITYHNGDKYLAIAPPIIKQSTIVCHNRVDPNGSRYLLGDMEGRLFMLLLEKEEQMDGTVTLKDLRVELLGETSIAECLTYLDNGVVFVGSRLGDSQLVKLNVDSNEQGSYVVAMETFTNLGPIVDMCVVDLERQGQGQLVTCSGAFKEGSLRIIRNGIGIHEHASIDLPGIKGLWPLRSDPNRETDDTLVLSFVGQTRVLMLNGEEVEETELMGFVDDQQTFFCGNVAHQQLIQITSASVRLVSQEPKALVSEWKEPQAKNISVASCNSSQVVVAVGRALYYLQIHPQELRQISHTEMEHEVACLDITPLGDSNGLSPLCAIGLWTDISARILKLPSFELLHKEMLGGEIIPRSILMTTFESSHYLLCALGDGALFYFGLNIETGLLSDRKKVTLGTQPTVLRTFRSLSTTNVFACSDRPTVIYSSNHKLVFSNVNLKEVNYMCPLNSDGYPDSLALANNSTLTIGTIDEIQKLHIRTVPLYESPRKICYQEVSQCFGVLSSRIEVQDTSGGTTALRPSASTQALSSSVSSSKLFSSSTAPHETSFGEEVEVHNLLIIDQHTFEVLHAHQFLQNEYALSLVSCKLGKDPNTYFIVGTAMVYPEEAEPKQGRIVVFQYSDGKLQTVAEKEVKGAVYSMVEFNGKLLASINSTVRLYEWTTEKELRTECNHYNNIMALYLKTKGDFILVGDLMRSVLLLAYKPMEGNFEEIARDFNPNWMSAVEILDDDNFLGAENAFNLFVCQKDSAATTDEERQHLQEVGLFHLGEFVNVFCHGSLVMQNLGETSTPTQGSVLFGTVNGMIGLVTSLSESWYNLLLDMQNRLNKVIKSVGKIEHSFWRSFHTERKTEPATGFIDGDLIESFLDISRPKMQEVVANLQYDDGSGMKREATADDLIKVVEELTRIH
SMILES,"inhibition at 0.2 µM (CDK4; Calu-1 cells, 200 nM, 16 hours)","inhibition at 10 µM (CDK4; Calu-1 cells, 16 hours)",CyclinD1 Degradation (200 nM) (cyclin D1),"inhibition at 0.2 µM (CDK4; Calu-1, 16 h)",CyclinD1 Degradation (10 μM) (cyclin D1)
"CC(=O)c1c(C)c2cnc(Nc3ccc(N4CCN(C(=O)CCCCCCCC(=O)Nc5ccccc5C(=O)Nc5nc(C)c(C)s5)CC4)cn3)nc2n(C2CCCC2)c1=O [CPD-160, 2-(9-(4-(6-((6-Acetyl-8-cyclopentyl-5-methyl-7-oxo-7,8-dihydropyrido[2,3-d]pyrimidin-2-yl)amino)pyridin-3-yl)piperazin-1-yl)-9-oxononanamido)-N-(4,5-dimethylthiazol-2-yl)benzamide]",,,"C (protein percentage degradation <50%, and >=30%)",50 to 80%,
"CC(=O)c1c(C)c2cnc(Nc3ccc(N4CCN(CC(=O)NCCCCCCCNc5cccc(C(=O)Nc6nc(C)c(C)s6)c5C)CC4)cn3)nc2n(C2CCCC2)c1=O [CPD-102, 3-((7-(2-(4-(6-((6-Acetyl-8-cyclopentyl-5-methyl-7-oxo-7,8-dihydropyrido[2,3-d]pyrimidin-2-yl)amino)pyridin-3-yl)piperazin-1-yl)acetamido)heptyl)amino)-N-(4,5-dimethylthiazol-2-yl)-2-methylbenzamide]",50 to 80%,,A (protein percentage degradation >=80%),,
"CC(=O)c1c(C)c2cnc(Nc3ccc(N4CCN(C(=O)CCCCC(=O)Nc5ccccc5C(=O)Nc5nc(C)c(C)s5)CC4)cn3)nc2n(C2CCCC2)c1=O [CPD-156, 2-(6-(4-(6-((6-Acetyl-8-cyclopentyl-5-methyl-7-oxo-7,8-dihydropyrido[2,3-d]pyrimidin-2-yl)amino)pyridin-3-yl)piperazin-1-yl)-6-oxohexanamido)-N-(4,5-dimethylthiazol-2-yl)benzamide]",,,D (protein percentage degradation <30%),< 30%,
"Cc1nc(NC(=O)c2ccccc2NC(=O)CCOCCOCCOCCOCCOCCNC(=O)CN2CCN(c3ccc(Nc4ncc5cc(C(=O)N(C)C)n(C6CCCC6)c5n4)nc3)CC2)sc1C [CPD-298, 7-Cyclopentyl-2-((5-(4-(21-((2-((4,5-dimethylthiazol-2-yl)carbamoyl)phenyl)amino)-2,21-dioxo-6,9,12,15,18-pentaoxa-3-azahenicosyl)piperazin-1-yl)pyridin-2-yl)amino)-N,N-dimethyl-7H-pyrrolo[2,3-d]pyrimidine-6-carboxamide]",,50 to 80%,,,A (protein percentage degradation >= 80%)
"CC(=O)c1c(C)c2cnc(Nc3ccc(N4CCN(CC(=O)NCCCCCCNc5cccc(C(=O)Nc6nc(C)c(C)s6)c5C)CC4)cn3)nc2n(C2CCCC2)c1=O [CPD-101, 3-((6-(2-(4-(6-((6-Acetyl-8-cyclopentyl-5-methyl-7-oxo-7,8-dihydropyrido[2,3-d]pyrimidin-2-yl)amino)pyridin-3-yl)piperazin-1-yl)acetamido)hexyl)amino)-N-(4,5-dimethylthiazol-2-yl)-2-methylbenzamide]",50 to 80%,,A (protein percentage degradation >=80%),,
"Cc1nc(NC(=O)c2ccccc2NC(=O)CCCCCCCNC(=O)CN2CCN(Cc3ccc(Nc4ncc(F)c(-c5cc(F)c6nc(C)n(C(C)C)c6c5)n4)nc3)CC2)sc1C [CPD-278, N-(4,5-Dimethylthiazol-2-yl)-2-(8-(2-(4-((6-((5-fluoro-4-(4-fluoro-1-isopropyl-2-methyl-1H-benzo[d]imidazol-6-yl)pyrimidin-2-yl)amino)pyridin-3-yl)methyl)piperazin-1-yl)acetamido)octanamido)benzamide]",,< 30%,,,D (protein percentage degradation < 30%)
"CC(=O)c1c(C)c2cnc(Nc3ccc(N4CCN(CC(=O)NCCCCNc5cc(C)ccc5C(=O)Nc5ccc(N(C)C)nn5)CC4)cn3)nc2n(C2CCCC2)c1=O [CPD-375, 2-((4-(2-(4-(6-((6-Acetyl-8-cyclopentyl-5-methyl-7-oxo-7,8-dihydropyrido[2,3-d]pyrimidin-2-yl)amino)pyridin-3-yl)piperazin-1-yl)acetamido)butyl)amino)-N-(6-(dimethylamino)pyridazin-3-yl)-4-methylbenzamide]",50 to 80%,,A (protein percentage degradation >=80%),,
"CC(=O)c1c(C)c2cnc(Nc3ccc(N4CCN(C(=O)CCCCCCCCC(=O)Nc5ccccc5C(=O)Nc5nc(C)c(C)s5)CC4)cn3)nc2n(C2CCCC2)c1=O [CPD-162, 2-(10-(4-(6-((6-Acetyl-8-cyclopentyl-5-methyl-7-oxo-7,8-dihydropyrido[2,3-d]pyrimidin-2-yl)amino)pyridin-3-yl)piperazin-1-yl)-10-oxodecanamido)-N-(4,5-dimethylthiazol-2-yl)benzamide]",,,"C (protein percentage degradation <50%, and >=30%)",< 30%,
"CC(=O)c1c(C)c2cnc(Nc3ccc(N4CCN(C(=O)CCCCCC(=O)Nc5ccccc5C(=O)Nc5nc(C)c(C)s5)CC4)cn3)nc2n(C2CCCC2)c1=O [CPD-157, 2-(7-(4-(6-((6-Acetyl-8-cyclopentyl-5-methyl-7-oxo-7,8-dihydropyrido[2,3-d]pyrimidin-2-yl)amino)pyridin-3-yl)piperazin-1-yl)-7-oxoheptanamido)-N-(4,5-dimethylthiazol-2-yl)benzamide]",,,D (protein percentage degradation <30%),< 30%,

# More lines, main results first:
"inhibition at 0.2 µM (CDK4; Calu-1 cells, 200 nM, 16 hours)","inhibition at 10 µM (CDK4; Calu-1 cells, 16 hours)",SMILES,CyclinD1 Degradation (200 nM) (cyclin D1),"inhibition at 0.2 µM (CDK4; Calu-1, 16 h)",CyclinD1 Degradation (10 μM) (cyclin D1)
< 30%,,"CC(=O)c1c(C)c2cnc(Nc3ccc(N4CCN(CC(=O)NCCOCCNc5cccc(C(=O)Nc6nc(C)c(C)s6)c5C)CC4)cn3)nc2n(C2CCCC2)c1=O [CPD-103, 3-((2-(2-(2-(4-(6-((6-Acetyl-8-cyclopentyl-5-methyl-7-oxo-7,8-dihydropyrido[2,3-d]pyrimidin-2-yl)amino)pyridin-3-yl)piperazin-1-yl)acetamido)ethoxy)ethyl)amino)-N-(4,5-dimethylthiazol-2-yl)-2-methylbenzamide]",D (protein percentage degradation <30%),,
50 to 80%,,"CC(=O)c1c(C)c2cnc(Nc3ccc(N4CCN(CC(=O)NCCOCCOCCC(=O)Nc5ccccc5C(=O)Nc5ccc(C6CC6)cn5)CC4)cn3)nc2n(C2CCCC2)c1=O [CPD-184, 2-(3-(2-(2-(2-(4-(6-((6-Acetyl-8-cyclopentyl-5-methyl-7-oxo-7,8-dihydropyrido[2,3-d]pyrimidin-2-yl)amino)pyridin-3-yl)piperazin-1-yl)acetamido)ethoxy)ethoxy)propanamido)-N-(5-cyclopropylpyridin-2-yl)benzamide]",A (protein percentage degradation >=80%),,
< 30%,,"CC(=O)c1c(C)c2cnc(Nc3ccc(N4CCN(CC(=O)NCCOCCOCCC(=O)NC5CCCCC5C(=O)Nc5nc(C)c(C)s5)CC4)cn3)nc2n(C2CCCC2)c1=O (centres unmarked) [CPD-179, 2-(3-(2-(2-(2-(4-(6-((6-Acetyl-8-cyclopentyl-5-methyl-7-oxo-7,8-dihydropyrido[2,3-d]pyrimidin-2-yl)amino)pyridin-3-yl)piperazin-1-yl)acetamido)ethoxy)ethoxy)propanamido)-N-(4,5-dimethylthiazol-2-yl)cyclohexane-1-carboxamide]",D (protein percentage degradation <30%),,
> 80%,,"CC(=O)c1c(C)c2cnc(Nc3ccc(N4CCN(CC(=O)NCCOCCOCCOCCOCCOCCOCCC(=O)Nc5ccccc5C(=O)Nc5nc(C)c(C)s5)CC4)cn3)nc2n(C2CCCC2)c1=O [CPD-173, 2-(1-(4-(6-((6-Acetyl-8-cyclopentyl-5-methyl-7-oxo-7,8-dihydropyrido[2,3-d]pyrimidin-2-yl)amino)pyridin-3-yl)piperazin-1-yl)-2-oxo-6,9,12,15,18,21-hexaoxa-3-azatetracosan-24-amido)-N-(4,5-dimethylthiazol-2-yl)benzamide]",A (protein percentage degradation >=80%),,
50 to 80%,,"CC(=O)c1c(C)c2cnc(Nc3ccc(N4CCN(CC(=O)NCCOCCOCCC(=O)Nc5ccccc5C(=O)Nc5ccc(C)cn5)CC4)cn3)nc2n(C2CCCC2)c1=O [CPD-061, 2-(3-(2-(2-(2-(4-(6-((6-Acetyl-8-cyclopentyl-5-methyl-7-oxo-7,8-dihydropyrido[2,3-d]pyrimidin-2-yl)amino)pyridin-3-yl)piperazin-1-yl)acetamido)ethoxy)ethoxy)propanamido)-N-(5-methylpyridin-2-yl)benzamide]",A (protein percentage degradation >=80%),,
< 30%,,"CC(=O)c1c(C)c2cnc(Nc3ccc(N4CCN(CC(=O)NCCOCCOCCC(=O)Nc5ccccc5C(=O)Nc5nnc(C)s5)CC4)cn3)nc2n(C2CCCC2)c1=O [CPD-367, 2-(3-(2-(2-(2-(4-(6-((6-Acetyl-8-cyclopentyl-5-methyl-7-oxo-7,8-dihydropyrido[2,3-d]pyrimidin-2-yl)amino)pyridin-3-yl)piperazin-1-yl)acetamido)ethoxy)ethoxy)propanamido)-N-(5-methyl-1,3,4-thiadiazol-2-yl)benzamide]",D (protein percentage degradation <30%),,
,50 to 80%,"Cc1nc(NC(=O)c2ccccc2NC(=O)CCOCCNC(=O)CN2CCN(c3ccc(Nc4ncc5cc(C(=O)N(C)C)n(C6CCCC6)c5n4)nc3)CC2)sc1C [CPD-294, 7-Cyclopentyl-2-((5-(4-(2-((2-(3-((2-((4,5-dimethylthiazol-2-yl)carbamoyl)phenyl)amino)-3-oxopropoxy)ethyl)amino)-2-oxoethyl)piperazin-1-yl)pyridin-2-yl)amino)-N,N-dimethyl-7H-pyrrolo[2,3-d]pyrimidine-6-carboxamide]",,,A (protein percentage degradation >= 80%)
